# Laboratory results from patent US20260297085A1, “1 H-PYRROLO[2,3-B]PYRIDIN-4-YL]-2-OXOPYRROLIDINE-3-CARBONITRILE DERIVATIVES AS TYROSINE KINASE 2 (TYK2) INHIBITORS FOR THE TREATMENT OF INFLAMMATORY DISEASES” (BIOGEN MA INC., priority 2023, published 2026).
# Where a name gives a salt, the structure may show the parent alone.
# Legend:
# [1] = target: T1, human JAK3 kinase domain (JH1) (Homo sapiens, UniProt P52333); assay: JH1 biochemical assay for JAK3 (ADP-Glo kinase assay, recombinant JH1 catalytic domain, JAK3-974 peptide, 4 μM ATP); conditions: JAK3 JH1, ADP-Glo
# T1 construct: recombinantly generated catalytic kinase (also known as JH1) domain of human JAK1, JAK2, JAK3 and TYK2
# Outline: (§1)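 ADP-Glo luminescence with 50 μM peptide and 100 min reactions: JAK1 4 nM with JAK3-342 peptide; JAK2, JAK3 and TYK2 at 0.2, 0.3 and 2 nM with JAK3-974 peptide. Compounds tested from 10 or 1 μM top, 11 points, 3-fold. IC50 from a 4-parameter logistic fit of normalized activity.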
# [2] = target: T2, human JAK1 kinase domain (JH1) (Homo sapiens, UniProt P23458); assay: JH1 biochemical assay for JAK1 (ADP-Glo kinase assay, recombinant JH1 catalytic domain, JAK3-342 peptide, 35 μM ATP); conditions: JAK1 JH1, ADP-Glo
# T2 construct: recombinantly generated catalytic kinase (also known as JH1) domain of human JAK1, JAK2, JAK3 and TYK2
# Outline: as §1
# [3] = target: T3, human TYK2 kinase domain (JH1) (Homo sapiens, UniProt P29597); assay: JH1 biochemical assay for TYK2 (ADP-Glo kinase assay, recombinant JH1 catalytic domain, JAK3-974 peptide, 10 μM ATP); conditions: TYK2 JH1, ADP-Glo
# T3 construct: recombinantly generated catalytic kinase (also known as JH1) domain of human JAK1, JAK2, JAK3 and TYK2
# T3 sequence (P29597 897-1176 limits assumed): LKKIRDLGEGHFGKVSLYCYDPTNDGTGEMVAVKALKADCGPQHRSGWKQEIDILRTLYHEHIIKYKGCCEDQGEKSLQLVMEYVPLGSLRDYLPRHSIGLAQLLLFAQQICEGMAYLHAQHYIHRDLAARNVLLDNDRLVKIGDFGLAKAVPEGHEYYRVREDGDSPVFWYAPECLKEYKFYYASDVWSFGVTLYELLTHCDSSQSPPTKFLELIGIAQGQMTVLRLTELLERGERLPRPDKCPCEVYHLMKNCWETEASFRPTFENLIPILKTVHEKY
# Outline: as §1
# [4] = target: T4, human JAK2 kinase domain (JH1) (Homo sapiens, UniProt O60674); assay: JH1 biochemical assay for JAK2 (ADP-Glo kinase assay, recombinant JH1 catalytic domain, JAK3-974 peptide, 15 μM ATP); conditions: JAK2 JH1, ADP-Glo
# T4 construct: recombinantly generated catalytic kinase (also known as JH1) domain of human JAK1, JAK2, JAK3 and TYK2
# Outline: as §1
# T2 sequence (P23458 875-1153 limits assumed): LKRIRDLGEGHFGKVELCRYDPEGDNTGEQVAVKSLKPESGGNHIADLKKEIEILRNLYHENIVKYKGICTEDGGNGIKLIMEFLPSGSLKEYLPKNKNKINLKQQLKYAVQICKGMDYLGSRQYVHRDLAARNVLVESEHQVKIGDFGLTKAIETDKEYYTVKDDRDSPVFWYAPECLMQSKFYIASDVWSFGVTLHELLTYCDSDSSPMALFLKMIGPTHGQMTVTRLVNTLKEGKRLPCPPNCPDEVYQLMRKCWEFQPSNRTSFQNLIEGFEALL
# T4 sequence (O60674 849-1124 limits assumed): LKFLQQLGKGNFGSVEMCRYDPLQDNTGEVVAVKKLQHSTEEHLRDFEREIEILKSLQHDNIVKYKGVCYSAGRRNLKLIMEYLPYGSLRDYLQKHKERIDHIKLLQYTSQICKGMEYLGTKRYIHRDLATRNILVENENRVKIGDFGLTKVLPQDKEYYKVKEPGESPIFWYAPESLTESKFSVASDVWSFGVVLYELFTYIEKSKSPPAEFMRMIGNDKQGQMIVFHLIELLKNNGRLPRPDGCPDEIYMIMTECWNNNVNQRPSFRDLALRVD
# T1 sequence (P52333 822-1111 limits assumed): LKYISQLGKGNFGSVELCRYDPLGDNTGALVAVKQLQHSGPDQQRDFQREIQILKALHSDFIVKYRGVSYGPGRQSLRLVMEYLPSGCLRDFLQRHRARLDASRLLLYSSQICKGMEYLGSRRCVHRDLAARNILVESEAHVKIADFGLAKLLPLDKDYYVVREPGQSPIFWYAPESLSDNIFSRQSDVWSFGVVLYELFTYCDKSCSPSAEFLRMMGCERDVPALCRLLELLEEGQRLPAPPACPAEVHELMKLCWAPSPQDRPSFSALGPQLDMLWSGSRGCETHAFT
SMILES,IC50 [1] [µM],IC50 [2] [µM],IC50 [3] [µM],IC50 [4] [µM]
"COc1ncc(-c2cn3nccc3c(N3C[C@@H](C)[C@@](C#N)(C4CC4)C3=O)n2)cn1 [Example 240, (3R,4S)-3-cyclopropyl-1-(6-(2-methoxypyrimidin-5-yl)pyrazolo[1,5-a]pyrazin-4-yl)-4-methyl-2-oxopyrrolidine-3-carbonitrile trifluoroacetate]",> 10,> 10,> 0.1,> 10
"C[C@@H]1CN(c2nc(-c3cccc4cnn(C)c34)cn3nccc23)C(=O)[C@]1(C#N)C1CC1 [Example 242, (3R,4S)-3-cyclopropyl-4-methyl-1-(6-(1-methyl-1H-indazol-7-yl)pyrazolo[1,5-a]pyrazin-4-yl)-2-oxopyrrolidine-3-carbonitrile]",> 10,> 10,> 0.1,> 10
"C[C@@H]1CN(c2nc(-c3ncc[nH]3)cn3nccc23)C(=O)[C@]1(C#N)C1CC1 [Example 247, (3R,4S)-1-(6-(1H-imidazol-2-yl)pyrazolo[1,5-a]pyrazin-4-yl)-3-cyclopropyl-4-methyl-2-oxopyrrolidine-3-carbonitrile trifluoroacetate]",> 10,> 10,> 0.1,> 10
"COc1cc(-c2cn3nccc3c(N3C[C@@H](C)[C@@](C#N)(C4CC4)C3=O)n2)c(OC)nn1 [Example 253, (3R,4S)-3-cyclopropyl-1-(6-(3,6-dimethoxypyridazin-4-yl)pyrazolo[1,5-a]pyrazin-4-yl)-4-methyl-2-oxopyrrolidine-3-carbonitrile trifluoroacetate]",5 to 10,1 to 5,0.02 to 0.05,> 10
"COc1ncc(-c2cn3nccc3c(N3C[C@@H](C)[C@@](C#N)(C4CC4)C3=O)n2)cc1C#N [Example 262, 5-(4-((3R,4S)-3-cyano-3-cyclopropyl-4-methyl-2-oxopyrrolidin-1-yl)pyrazolo[1,5-a]pyrazin-6-yl)-2-methoxynicotinonitrile trifluoroacetate]",> 10,> 10,0.02 to 0.05,> 10
"C[C@@H]1CN(c2cccn3nc(-c4cnn(C)c4)cc23)C(=O)[C@]1(C#N)C1CC1 [Example 272, (3R,4S)-3-cyclopropyl-4-methyl-1-(2-(1-methyl-1H-pyrazol-4-yl)pyrazolo[1,5-a]pyridin-4-yl)-2-oxopyrrolidine-3-carbonitrile]",> 10,> 10,> 0.1,> 10
"C[C@@H]1CN(c2ccnc3cc(-c4cnn(C)c4)nn23)C(=O)[C@]1(C#N)C1CC1 [Example 273, (3R,4S)-3-cyclopropyl-4-methyl-1-(2-(1-methyl-1H-pyrazol-4-yl)pyrazolo[1,5-a]pyrimidin-7-yl)-2-oxopyrrolidine-3-carbonitrile]",5 to 10,5 to 10,> 0.1,> 10
"C[C@@H]1CN(c2n[nH]c3ncc(-c4cnn(C)c4)cc23)C(=O)[C@]1(C#N)C1CC1 [Example 274, (3R,4S)-3-cyclopropyl-4-methyl-1-(5-(1-methyl-1H-pyrazol-4-yl)-1H-pyrazolo[3,4-b]pyridin-3-yl)-2-oxopyrrolidine-3-carbonitrile]",> 10,> 10,> 0.1,0.1 to 1
"C[C@@H]1CN(c2nn(-c3cccc(=O)n3C)c3cnccc23)C(=O)[C@]1(C#N)C1CC1 [Example 279, (3R,4S)-3-cyclopropyl-4-methyl-1-(1-(1-methyl-6-oxo-1,6-dihydropyridin-2-yl)-1H-pyrazolo[3,4-c]pyridin-3-yl)-2-oxopyrrolidine-3-carbonitrile]",> 10,> 10,> 0.1,> 10

# Further lines, results first:
IC50 [1] [µM],IC50 [2] [µM],IC50 [3] [µM],IC50 [4] [µM],SMILES
1 to 5,0.1 to 1,0.05 to 0.1,1 to 5,"Cc1cc(-c2cn3nccc3c(N3C[C@@H](C)[C@@](C#N)(C4CC4)C3=O)n2)ccn1 [Example 241, (3R,4S)-3-cyclopropyl-4-methyl-1-(6-(2-methylpyridin-4-yl)pyrazolo[1,5-a]pyrazin-4-yl)-2-oxopyrrolidine-3-carbonitrile trifluoroacetate]"
1 to 5,1 to 5,> 0.1,> 10,"C[C@@H]1CN(c2nc(-c3ccc(F)nc3)cn3nccc23)C(=O)[C@]1(C#N)C1CC1 [Example 243, (3R,4S)-3-cyclopropyl-1-(6-(6-fluoropyridin-3-yl)pyrazolo[1,5-a]pyrazin-4-yl)-4-methyl-2-oxopyrrolidine-3-carbonitrile trifluoroacetate]"
0.1 to 1,0.1 to 1,0.005 to 0.02,0.1 to 1,"C[C@@H]1CN(c2nc(-c3cncc(F)c3)cn3nccc23)C(=O)[C@]1(C#N)C1CC1 [Example 246, (3R,4S)-3-cyclopropyl-1-(6-(5-fluoropyridin-3-yl)pyrazolo[1,5-a]pyrazin-4-yl)-4-methyl-2-oxopyrrolidine-3-carbonitrile trifluoroacetate]"
1 to 5,0.1 to 1,0.02 to 0.05,1 to 5,"C[C@@H]1CN(c2nc(-c3cncc(Cl)c3)cn3nccc23)C(=O)[C@]1(C#N)C1CC1 [Example 248, (3R,4S)-1-(6-(5-chloropyridin-3-yl)pyrazolo[1,5-a]pyrazin-4-yl)-3-cyclopropyl-4-methyl-2-oxopyrrolidine-3-carbonitrile trifluoroacetate]"
5 to 10,> 10,> 0.1,> 10,"CC(=O)Nc1cncc(-c2cn3nccc3c(N3C[C@@H](C)[C@@](C#N)(C4CC4)C3=O)n2)c1 [Example 249, N-(5-(4-((3R,4S)-3-cyano-3-cyclopropyl-4-methyl-2-oxopyrrolidin-1-yl)pyrazolo[1,5-a]pyrazin-6-yl)pyridin-3-yl)acetamide trifluoroacetate]"
1 to 5,0.1 to 1,0.02 to 0.05,1 to 5,"COc1ncccc1-c1cn2nccc2c(N2C[C@@H](C)[C@@](C#N)(C3CC3)C2=O)n1 [Example 250, (3R,4S)-3-cyclopropyl-1-(6-(2-methoxypyridin-3-yl)pyrazolo[1,5-a]pyrazin-4-yl)-4-methyl-2-oxopyrrolidine-3-carbonitrile]"
0.1 to 1,0.1 to 1,0.02 to 0.05,0.1 to 1,"C[C@@H]1CN(c2nc(-c3ccnn3C)cn3nccc23)C(=O)[C@]1(C#N)C1CC1 [Example 254, (3R,4S)-3-cyclopropyl-4-methyl-1-(6-(1-methyl-1H-pyrazol-5-yl)pyrazolo[1,5-a]pyrazin-4-yl)-2-oxopyrrolidine-3-carbonitrile trifluoroacetate]"
0.1 to 1,< 0.1,0.02 to 0.05,> 10,"C[C@@H]1CN(c2nc(-c3cccc(F)n3)cn3nccc23)C(=O)[C@]1(C#N)C1CC1 [Example 255, (3R,4S)-3-cyclopropyl-1-(6-(6-fluoropyridin-2-yl)pyrazolo[1,5-a]pyrazin-4-yl)-4-methyl-2-oxopyrrolidine-3-carbonitrile trifluoroacetate]"
1 to 5,> 10,> 0.1,1 to 5,"C[C@@H]1CN(c2nc(-c3cccnc3OC(F)F)cn3nccc23)C(=O)[C@]1(C#N)C1CC1 [Example 256, (3R,4S)-3-cyclopropyl-1-(6-(2-(difluoromethoxy)pyridin-3-yl)pyrazolo[1,5-a]pyrazin-4-yl)-4-methyl-2-oxopyrrolidine-3-carbonitrile trifluoroacetate]"
1 to 5,0.1 to 1,0.05 to 0.1,1 to 5,"C[C@@H]1CN(c2nc(-c3cncc(C(F)(F)F)c3)cn3nccc23)C(=O)[C@]1(C#N)C1CC1 [Example 260, (3R,4S)-3-cyclopropyl-4-methyl-2-oxo-1-(6-(5-(trifluoromethyl)pyridin-3-yl)pyrazolo[1,5-a]pyrazin-4-yl)pyrrolidine-3-carbonitrile trifluoroacetate]"
1 to 5,1 to 5,0.05 to 0.1,1 to 5,"C[C@@H]1CN(c2nc(-c3cncnc3)cn3nccc23)C(=O)[C@]1(C#N)C1CC1 [Example 265, (3R,4S)-3-cyclopropyl-4-methyl-2-oxo-1-(6-(pyrimidin-5-yl)pyrazolo[1,5-a]pyrazin-4-yl)pyrrolidine-3-carbonitrile trifluoroacetate]"
1 to 5,1 to 5,> 0.1,5 to 10,"C[C@@H]1CN(c2nc(-c3cnn(C)c3)cc3nccn23)C(=O)[C@]1(C#N)C1CC1 [Example 269, (3R,4S)-3-cyclopropyl-4-methyl-1-(7-(1-methyl-1H-pyrazol-4-yl)imidazo[1,2-c]pyrimidin-5-yl)-2-oxopyrrolidine-3-carbonitrile]"
1 to 5,1 to 5,0.02 to 0.05,1 to 5,"C[C@@H]1CN(c2cc(-c3cnn(C(F)F)c3)cn3ncc(F)c23)C(=O)[C@]1(C#N)C1CC1 [Example 270, (3R,4S)-3-cyclopropyl-1-(6-(1-(difluoromethyl)-1H-pyrazol-4-yl)-3-fluoropyrazolo[1,5-a]pyridin-4-yl)-4-methyl-2-oxopyrrolidine-3-carbonitrile]"
